From publication PMC7565067, “Identification and Target-Modification of SL-BBI: A Novel Bowman–Birk Type Trypsin Inhibitor from Sylvirana latouchii” (Biomolecules, 2020)
Where a SMILES comes first, the peptide text is derived from it. Bridges are numbered along the chain shown (N, C = ends).

What was measured:
[1] = test system: Staphylococcus aureus (ATCC 12600); type: cell-based
Protocol: (§1) Antimicrobial activity of the synthetic peptides was assessed by determination of MIC/MBC on Escherichia coli (ATCC 11775), Staphylococcus aureus (ATCC 12600), Candida albicans (NCYC 1467) and methicillin-resistant Staphylococcus aureus (MRSA) (NCTC 12493) according to the previous report. Briefly, the test microorganism was inoculated in Mueller Hinton Broth (MHB) medium and incubated overnight at 37 °C. Then the subculture was performed until the optical density (OD) reached the logarithmic growth phase and diluted to 1 × 10^6 colony forming units (CFU)/mL for bacteria and 1 × 10^5 CFU/mL for fungus obtained. The synthetic peptides with the concentration from 1 to 512 µM were double diluted by PBS. Five replications of sterile control, vehicle control and growth control were set as 100 µL MHB/well, 100 µL 1% PBS with subculture solution/well and 100 µl subculture solution/well, respectively. The 96-well plate was incubated at 37 °C overnight. The absorbance of each well at 550 nm was measured by Synergy HT plate reader (Biotech, Minneapolis, MN, USA). The minimum bactericidal concentration was detected by sub-culturing treated samples onto Mueller-Hinton agar (MHA) plate for another eighteen hours at 37 °C.

[2] = test system: methicillin-resistant Staphylococcus aureus (MRSA) (NCTC 12493); type: cell-based
Protocol: as §1

[3] = test system: Escherichia coli (ATCC 11775); type: cell-based
Protocol: as §1

[4] = test system: Candida albicans (NCYC 1467); type: cell-based
Protocol: as §1

chymotrypsin = chymotrypsin (Bos taurus, UniProt P00766); experiment: biochemical
Protocol: Ten microliters of trypsin/chymotrypsin (Sigma Aldrich, Dorset, UK) working solution (0.1 µM in 1 mM HCl) was added into the wells of a black micro-titre plate with corresponding substrate and peptide replicates (0.1–100 µM) in 10 mM phosphate buffer (final volume 210 μL). Additionally, Phe-Pro-Arg- NHMec (Bachem, Cambridge, UK) and Succinyl-Ala-Ala-Pro-Phe-NHMec (Bachem, Cambridge, UK) were performed as substrates for trypsin and chymotrypsin, respectively. The fluorescence intensity of NHMec was monitored at 37 °C continuously for 30 min by a FLUOstar OPTIMA multi-well plate reader (BMG Labtech, Ortenberg, Germany) at wavelengths of 460 nm for emission and 395 nm for excitation.

H23 cells = type: cell-based, human; conditions: 24 h; SD
Protocol: (§2) MTT (3-(4, 5-dimethylthiazol-2-yl)-2, 5-diphenyltetrazolium bromide) cell viability assay was performed to evaluate the cell proliferation inhibitory rate of synthetic peptides in a series of human cell lines: PC-3 (ATCC® CRL-1435™), H157 (RRID: CVCL_0463), H460 (ATCC® HTB-177™), H838 (ATCC® CRL-5844™), H23 (ATCC® CRL-5800™), MCF-7 (ATCC® HTB-22™), HCT116 (ATCC® CCL-247™), U251MG (ECACC-09063001) and HMEC-1 (ATCC® CRL-3243™) which was detailed in the previous report.

HMEC-1 cells = type: cell-based, human; conditions: 24 h; SD
Protocol: as §2

MCF-7 cells = type: cell-based, human; conditions: 24 h; SD
Protocol: as §2

PC-3 cells = type: cell-based, human; conditions: 24 h; SD
Protocol: as §2

H157 cells = type: cell-based, human; conditions: 24 h; SD
Protocol: as §2

H460 cells = type: cell-based, human; conditions: 24 h; SD
Protocol: as §2

H838 cells = type: cell-based, human; conditions: 24 h; SD
Protocol: as §2

MIC, MRSA [2] [µM] | SMILES | MBC, S. aureus [1] | MIC, S. aureus [1] [µM] | MBC, MRSA [2] [µM] | MBC, E. coli [3] | MBC, C. albicans [4] | MIC, C. albicans [4] [µM] | MIC, E. coli [3] [µM] | Ki (chymotrypsin) [µM] | IC50 (H23 cells) [µM] | IC50 (HMEC-1 cells) [µM] | IC50 (MCF-7 cells) [µM] | IC50 (PC-3 cells) [µM] | IC50 (H157 cells) [µM] | IC50 (H460 cells) [µM] | IC50 (H838 cells) [µM]
>512 | CC(C)C[C@H](NC(=O)[C@@H]1CSSC[C@H](NC(=O)CNC(=O)[C@H](CCCNC(=N)N)NC(=O)[C@H](CC(C)C)NC(=O)[C@H](C)NC(=O)[C@@H](N)CO)C(=O)N[C@@H](Cc2c[nH]c3ccccc23)C(=O)N[C@@H]([C@@H](C)O)C(=O)N[C@@H](CCCCN)C(=O)N[C@@H](CO)C(=O)N[C@@H](Cc2ccc(O)cc2)C(=O)N2CCC[C@H]2C(=O)N2CCC[C@H]2C(=O)N[C@@H](CCCCN)C(=O)N2CCC[C@H]2C(=O)N1)C(N)=O [SL-BBI] (H-SALRGCWTKSYPPKPCL-NH2; disulfide 6-16) | 256 µM | 256 | >512 | 128/128 μM | 256 µM | 256 | – | – | – | – | – | – | – | – | –
>512 | CC[C@H](C)[C@@H]1NC(=O)[C@H](CO)NC(=O)[C@H](CCCCN)NC(=O)[C@H]([C@@H](C)O)NC(=O)[C@H](Cc2c[nH]c3ccccc23)NC(=O)[C@@H](NC(=O)CNC(=O)[C@H](CCCNC(=N)N)NC(=O)[C@H](CC(C)C)NC(=O)[C@H](C)NC(=O)[C@H](C)N)CSSC[C@@H](C(=O)N[C@@H](CCCCN)C(N)=O)NC(=O)[C@@H]2CCCN2C(=O)[C@H](CCCCN)NC(=O)[C@@H]2CCCN2C(=O)[C@@H]2CCCN2C1=O [K-SL] (H-AALRGCWTKSIPPKPCK-NH2; disulfide 6-16) | 64/64 μM | – | >512 | 128/128 μM | 64/64 μM | – | – | – | – | – | – | – | – | – | –

SMILES | MIC, MRSA [2] [µM] | MBC, S. aureus [1] | MIC, S. aureus [1] [µM] | MBC, MRSA [2] [µM] | MBC, E. coli [3] | MBC, C. albicans [4] | MIC, C. albicans [4] [µM] | MIC, E. coli [3] [µM] | Ki (chymotrypsin) [µM] | IC50 (H23 cells) [µM] | IC50 (HMEC-1 cells) [µM] | IC50 (MCF-7 cells) [µM] | IC50 (PC-3 cells) [µM] | IC50 (H157 cells) [µM] | IC50 (H460 cells) [µM] | IC50 (H838 cells) [µM]
CC[C@H](C)[C@@H]1NC(=O)[C@H](CO)NC(=O)[C@H](Cc2ccccc2)NC(=O)[C@H]([C@@H](C)O)NC(=O)[C@H](Cc2c[nH]c3ccccc23)NC(=O)[C@@H](NC(=O)CNC(=O)[C@H](CCCNC(=N)N)NC(=O)[C@H](CC(C)C)NC(=O)[C@H](C)NC(=O)[C@@H](N)CO)CSSC[C@@H](C(=O)N[C@@H](CC(C)C)C(N)=O)NC(=O)[C@@H]2CCCN2C(=O)[C@H](CCCCN)NC(=O)[C@@H]2CCCN2C(=O)[C@@H]2CCCN2C1=O [F-SL] (H-SALRGCWTFSIPPKPCL-NH2; disulfide 6-16) | >512 | >512 µM | >512 | >512 | >512 µM | >512 µM | >512 | >512 | 0.309 | 79.1 ± 6.41 | 574 ± 9.41 | 202 ± 10.6 | 159 ± 6.44 | 101 ± 1.74 | 66 ± 2.64 | 59.7 ± 2.72
